Reference: patent US11622970B2, “BCL-2 inhibitors and their use as pharmaceuticals” (PRELUDE THERAPEUTICS INCORPORATED, priority 2020, dated 2023)

biological target: BCL-2 recombinant protein (Homo sapiens, UniProt P10415); assay: Cell free Bcl-2:Bak affinity assay (Bcl-2 Bak), HTRF competition of FAM-Bak peptide; type: binding; conditions: 1 μM compound, 4 nM BCL-2 recombinant protein, 100 nM FAM-Bak, read-out: potency (% inhibition at 1 μM)
Method: Biological Assays: Cell Free Bcl-2:Bak Affinity Assay (Bcl-2 Bak)
The assay is based on the competition of fluorescently labeled peptide binding to BCL-2 and the binding is monitored by HTRF signals between anti-GST-Tb and FAM-peptide using GST-Tag BCL proteins. Testing compounds were dissolved in DMSO at 10 mM and tested in 10-concentration IC50 mode. The compounds of interest in DMSO were added in 3-fold serial dilution to each well containing 4 nM of BCL-2 recombinant protein, 20 mM K Phosphate, pH 7.5, 50 mM NaCl, 1 mM EDTA, 0.005% Triton X-100, by using acoustic technology (Labcyte echo 550), After 10 minutes incubation at room temperature, 100 nM of FAM-Bak was added and incubated for another 10 minutes before addition of Anti-GST-Tb. The plate was then sealed and further incubated at room temperature for 60 minutes in the dark before reading. Percentage of inhibition was calculated by % inhibition=100×(FDMSO−F)/(FDMSO−FPC), in which FDMSO is DMSO control and FPC is a positive control. IC50 values were determined from dose-response curve by fitting the percent inhibition against compound concentration using GraphPad Prism software.

BCL-2 recombinant protein, sequence (P10415 whole entry): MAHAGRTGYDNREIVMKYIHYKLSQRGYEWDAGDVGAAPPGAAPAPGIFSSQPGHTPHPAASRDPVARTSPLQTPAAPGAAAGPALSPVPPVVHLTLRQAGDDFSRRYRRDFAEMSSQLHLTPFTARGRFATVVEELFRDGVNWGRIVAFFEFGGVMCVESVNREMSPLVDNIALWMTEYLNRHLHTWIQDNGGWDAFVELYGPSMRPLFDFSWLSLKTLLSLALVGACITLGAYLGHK

**Q.** For `Cc1ccc(CC(=O)NS(=O)(=O)c2ccc(N3CCN(CC4=C(c5ccc(Cl)cc5)CC(C)(C)CC4)CC3)cc2)cn1` [Example 26, N-([4-[4-[[2-(4-chlorophenyl)-4,4-dimethylcyclohexen-1-yl]methyl]piperazin-1-yl]phenyl]sulfonyl)-2-(6-methylpyridin-3-yl)acetamide], which inhibition at 1 µM is on record?
**A.** Its inhibition at 1 µM is less than 50%.

**Q.** `CC1(C)CCC(CN2CCN(c3ccc(S(=O)(=O)NC(=O)c4ccc5ccsc5n4)cc3)CC2)=C(c2ccc(Cl)cc2)C1` [Example 27, N-([4-[4-[[2-(4-chlorophenyl)-4,4-dimethylcyclohexen-1-yl]methyl]piperazin-1-yl]phenyl]sulfonyl)thieno[2,3-b]pyridine-6-carboxamide] was tested. Which inhibition at 1 µM did it give?
**A.** Its inhibition at 1 µM is 50 to 90%.

**Q.** With `CC1(C)CCC(CN2CCN(c3ccc(S(=O)(=O)NC(=O)C4CC=CCC4)cc3)CC2)=C(c2ccc(Cl)cc2)C1` (stereo not shown) [Example 28, N-([4-[4-[[2-(4-chlorophenyl)-4,4-dimethylcyclohexen-1-yl]methyl]piperazin-1-yl]phenyl]sulfonyl)cyclohex-3-ene-1-carboxamide] as the molecule, how does the inhibition at 1 µM read?
**A.** Its inhibition at 1 µM is less than 50%.

**Q.** Which inhibition at 1 µM does the source give for `CC1(C)CCC(CN2CCN(c3ccc(S(=O)(=O)NC(=O)C4(c5ccc([N+](=O)[O-])cc5)CC4)cc3)CC2)=C(c2ccc(Cl)cc2)C1` [Example 29, N-([4-[4-[[2-(4-chlorophenyl)-4,4-dimethylcyclohexen-1-yl]methyl]piperazin-1-yl]phenyl]sulfonyl)-1-(4-nitrophenyl)cyclopropane-1-carboxamide] here?
**A.** The inhibition at 1 µM was less than 50%.

**Q.** With `CC1(C)CCC(CN2CCN(c3ccc(S(=O)(=O)NC(=O)Cc4ccccc4F)cc3)CC2)=C(c2ccc(Cl)cc2)C1` [Example 30, N-([4-[4-[[2-(4-chlorophenyl)-4,4-dimethylcyclohexen-1-yl]methyl]piperazin-1-yl]phenyl]sulfonyl)-2-(2-fluorophenyl)acetamide] as the molecule, how does the inhibition at 1 µM read?
**A.** The inhibition at 1 µM was 50 to 90%.

**Q.** With `CC1(C)CCC(CN2CCN(c3ccc(S(=O)(=O)NC(=O)CCc4cccnc4)cc3)CC2)=C(c2ccc(Cl)cc2)C1` [Example 31, N-([4-[4-[[2-(4-chlorophenyl)-4,4-dimethylcyclohexen-1-yl]methyl]piperazin-1-yl]phenyl]sulfonyl)-3-(pyridin-3-yl)propanamide] as the molecule, how does the inhibition at 1 µM read?
**A.** Its inhibition at 1 µM is less than 50%.

**Q.** How did the inhibition at 1 µM turn out when `Cc1cccc(COc2cccc(C(=O)NS(=O)(=O)c3ccc(N4CCN(CC5=C(c6ccc(Cl)cc6)CC(C)(C)CC5)CC4)cc3)c2)c1` [Example 34, N-([4-[4-[[2-(4-chlorophenyl)-4,4-dimethylcyclohexen-1-yl]methyl]piperazin-1-yl]phenyl]sulfonyl)-3-((3-methylbenzyl)oxy)benzamide] was run?
**A.** The inhibition at 1 µM was 50 to 90%.

**Q.** `CC1(C)CCC(CN2CCN(c3ccc(S(=O)(=O)NC(=O)c4ccc(COc5cc(Cl)ccc5Cl)cc4)cc3)CC2)=C(c2ccc(Cl)cc2)C1` [Example 35, N-([4-[4-[[2-(4-chlorophenyl)-4,4-dimethylcyclohexen-1-yl]methyl]piperazin-1-yl]phenyl]sulfonyl)-4-((2,5-dichlorophenoxy)methyl)benzamide] was tested. Which inhibition at 1 µM did it give?
**A.** The inhibition at 1 µM was greater than 90%.

**Q.** `CC1(C)CCC(CN2CCN(c3ccc(S(=O)(=O)NC(=O)c4ccc(OCc5ccccc5)c([N+](=O)[O-])c4)cc3)CC2)=C(c2ccc(Cl)cc2)C1` [Example 36, 4-(benzyloxy)-N-([4-[4-[[2-(4-chlorophenyl)-4,4-dimethylcyclohexen-1-yl]methyl]piperazin-1-yl]phenyl]sulfonyl)-3-nitrobenzamide] was tested. Which inhibition at 1 µM did it give?
**A.** Its inhibition at 1 µM is 50 to 90%.

**Q.** With `CC1(C)CCC(CN2CCN(c3ccc(S(=O)(=O)NC(=O)c4ccc([N+](=O)[O-])c(OCc5ccccc5)c4)cc3)CC2)=C(c2ccc(Cl)cc2)C1` [Example 40, 3-(benzyloxy)-N-([4-[4-[[2-(4-chlorophenyl)-4,4-dimethylcyclohexen-1-yl]methyl]piperazin-1-yl]phenyl]sulfonyl)-4-nitrobenzamide] as the molecule, how does the inhibition at 1 µM read?
**A.** The inhibition at 1 µM was 50 to 90%.

**Q.** Which inhibition at 1 µM does the source give for `CC1(C)CCC(CN2CCN(c3ccc(S(=O)(=O)NC(=O)c4cc([N+](=O)[O-])c(NCC5CCOCC5)cc4Cl)cc3)CC2)=C(c2ccc(Cl)cc2)C1` [Example 41, 2-Chloro-N-[4-[4-[[2-(4-chlorophenyl)-4,4-dimethylcyclohexen-1-yl]methyl]piperazin-1-yl]phenyl]sulfonyl-5-nitro-4-(tetrahydropyran-4-ylmethylamino)benzamide] here?
**A.** Its inhibition at 1 µM is 50 to 90%.

**Q.** Which inhibition at 1 µM does the source give for `Cc1c(Cl)c(C(=O)NS(=O)(=O)c2ccc(N3CCN(CC4=C(c5ccc(Cl)cc5)CC(C)(C)CC4)CC3)cc2)cc([N+](=O)[O-])c1NCC1CCOCC1` [Example 42, 2-Chloro-N-([4-[4-[[2-(4-chlorophenyl)-4,4-dimethylcyclohexen-1-yl]methyl]piperazin-1-yl]phenyl]sulfonyl)-3-methyl-5-nitro-4-(tetrahydropyran-4-ylmethylamino)benzamide] here?
**A.** The inhibition at 1 µM was greater than 90%.

**Q.** Which inhibition at 1 µM does the source give for `Cc1nn(C)c(C)c1-c1nc(C(=O)NS(=O)(=O)c2ccc(N3CCN(CC4=C(c5ccc(Cl)cc5)CC(C)(C)CC4)CC3)cc2)ccc1F` [Example 44, N-[4-[4-[[2-(4-chlorophenyl)-4,4-dimethylcyclohexen-1-yl]methyl]piperazin-1-yl]phenyl]sulfonyl-5-fluoro-6-(1,3,5-trimethylpyrazol-4-yl)pyridine-2-carboxamide] here?
**A.** The inhibition at 1 µM was 50 to 90%.

same assay, conditions: 10-concentration IC50 mode, 4 nM BCL-2 recombinant protein, 100 nM FAM-Bak, read-out: potency (IC50)

**Q.** How did the IC50 turn out when `CC1(C)CCC(CN2CCN(c3ccc(S(=O)(=O)NC(=O)c4cccc([N+](=O)[O-])c4)cc3)CC2)=C(c2ccc(Cl)cc2)C1` [Example 32, N-([4-[4-[[2-(4-chlorophenyl)-4,4-dimethylcyclohexen-1-yl]methyl]piperazin-1-yl]phenyl]sulfonyl)-3-nitrobenzamide] was run?
**A.** Its IC50 is greater than 1000 nM.

**Q.** How did the IC50 turn out when `CC1(C)CCC(CN2CCN(c3ccc(S(=O)(=O)NC(=O)c4ccc(F)c(Br)n4)cc3)CC2)=C(c2ccc(Cl)cc2)C1` [Example 33, 6-bromo-N-([4-[4-[[2-(4-chlorophenyl)-4,4-dimethylcyclohexen-1-yl]methyl]piperazin-1-yl]phenyl]sulfonyl)-5-fluoropyridine-2-carboxamide] was run?
**A.** Its IC50 is 10 to 100 nM.

**Q.** `CC1(C)CCC(CN2CCN(c3ccc(S(=O)(=O)NC(=O)c4ccc(F)c(COc5ccc(Cl)cc5)c4)cc3)CC2)=C(c2ccc(Cl)cc2)C1` [Example 37, N-([4-[4-[[2-(4-chlorophenyl)-4,4-dimethylcyclohexen-1-yl]methyl]piperazin-1-yl]phenyl]sulfonyl)-3-((4-chlorophenoxy)methyl)-4-fluorobenzamide] was tested. Which IC50 did it give?
**A.** Its IC50 is 10 to 100 nM.

**Q.** With `CC1(C)CCC(CN2CCN(c3ccc(S(=O)(=O)NC(=O)c4ccc([N+](=O)[O-])c(COc5ccc(Cl)cc5)c4)cc3)CC2)=C(c2ccc(Cl)cc2)C1` [Example 38, N-([4-[4-[[2-(4-chlorophenyl)-4,4-dimethylcyclohexen-1-yl]methyl]piperazin-1-yl]phenyl]sulfonyl)-3-((4-chlorophenoxy)methyl)-4-nitrobenzamide] as the molecule, how does the IC50 read?
**A.** The IC50 was 10 to 100 nM.

**Q.** `CC1(C)CCC(CN2CCN(c3ccc(S(=O)(=O)NC(=O)c4ccc(COc5ccc(Cl)cc5)c([N+](=O)[O-])c4)cc3)CC2)=C(c2ccc(Cl)cc2)C1` [Example 39, N-([4-[4-[[2-(4-chlorophenyl)-4,4-dimethylcyclohexen-1-yl]methyl]piperazin-1-yl]phenyl]sulfonyl)-4-((4-chlorophenoxy)methyl)-3-nitrobenzamide] was tested. Which IC50 did it give?
**A.** The IC50 was 10 to 100 nM.

**Q.** For `CCNc1c([N+](=O)[O-])cc(C(=O)NS(=O)(=O)c2ccc(N3CCN(CC4=C(c5ccc(Cl)cc5)CC(C)(C)CC4)CC3)cc2)c(Cl)c1C` [Example 43, 2-chloro-N-[4-[4-[[2-(4-chlorophenyl)-4,4-dimethylcyclohexen-1-yl]methyl]piperazin-1-yl]phenyl]sulfonyl-4-(ethylamino)-3-methyl-5-nitrobenzamide], which IC50 is on record?
**A.** The IC50 was 100 to 1000 nM.
